The test system of test [1] is Male Sprague-Dawley rats. The test can be described thus: Example 1: post-resuscitation myocardial dysfunction after VF cardiac arrest, drug infusion for 240 min post-resuscitation.
For a further test, the system named is male domestic pigs. The test can be described thus: Example 3: dobutamine vs levosimendan in the porcine model of cardiac arrest and cardiac resuscitation. The format is in vivo, pig. On the procedure: Experimental Preparation: The experiments were performed in the porcine model of cardiac arrest and cardiac resuscitation which has been extensively exercised. (21,22). […] Anesthesia was initiated by intramuscular injection of ketamine (20 mg kg^−1) and was completed by ear vein injection of sodium pentobarbital (30 mg kg^−1). Additional 8 mg kg^−1 doses of sodium pentobarbital were injected to maintain anesthesia at intervals of one hour. A cuffed endotracheal tube was advanced into the trachea. Animals were mechanically ventilated with a volume of 15 mL kg^−1, peak airway flow of 40 L min^−1, and FiO2 of 0.2 with the aid of a volume-controlled ventilator (Model MA-1, Puritan-Bennett, Carlsbad, Calif.). End-tidal PCO2 (PETCO2) was monitored with an infrared analyzer (Model 01R-7101A, Nihon Kohden Corp, Tokyo, Japan). Respiratory frequency was adjusted to maintain PETCO2 between 35 and 40 mmHg. Blood temperature was maintained at 37±0.5° C. with the aid of infrared heating lamps, as required.
For the measurement of left ventricular functions, a 5.5/7.5 MHz biplane with pulse-wave Doppler transesophageal echocardiographic tranducer with 4-way flexure (Model 21363A, Hewlett-Packard Co. Medical Products Group, Andover, Mass.) was advanced from the incisor teeth into the esophagus for a distance of approximately 40 cm. For the measurement of aortic pressure, a fluid filled catheter was advanced from the surgically exposed left femoral artery into the thoracic aorta. For measurements of right atrial and pulmonary arterial pressures, blood temperature and cardiac output, a 7-French, pentalumen, thermodilution-tipped catheter was advanced from the surgically exposed left femoral vein and flow-directed into the pulmonary artery. For inducing VF, a 5-French pacing catheter (EP Techologies, Inc., Mountain View, Calif.) was advanced from the surgically exposed right cephalic vein into the right ventricle. […] This catheter was then looped laterally and advanced inferiorly for a distance of 5 cm into the great cardiac vein for sampling of coronary venous blood. The electrocardiographic (EKG) lead II was continuously recorded.
Experimental procedure: A total 15 animals were investigated. […] Cardiac arrest was induced with 1 to 2 mA AC delivered to the endocardium of the right ventricle. Mechanical ventilation was discontinued after onset of VF. At the end of a 7-minute interval of untreated VF, precordial compression (PC) was started with a pneumatic piston-driven chest compressor (Thumper, Model 1000, Michigan Instruments, Grand Rapids, Mich.). Coincident with the start of PC, the animal was mechanically ventilated with a tidal volume of […] and FiO2 of 1.0. […] The compression force was adjusted to decrease the anterior-posterior diameter of the chest by 25%. After 5 minutes of PC, defibrillation was attempted with a 150 J biphasic waveform shock delivered between the right infraclavicular area and the cardiac apex. If an organized cardiac rhythm with mean aortic pressure of more than 60 mm Hg persisted for an interval of 5 minutes or more, the animal was regarded as successfully resuscitated. At 10 minutes after restoration of spontaneous circulation (ROSC), one of the three interventions was begun. […] Levosimendan diluted in physiological salt solution was administered in a loading dose of 20 μg kg^−1, infused over 10 minutes, followed by infusion of 0.4 μg kg^−1 min^−1 also in physiologic salt solution for a total duration of 230 minutes.

The subject of test [2] is Male Sprague-Dawley rats. The test can be described thus: Example 2: dobutamine vs levosimendan for post-resuscitation myocardial failure, 8 min untreated VF + 6 min precordial compression. The format is in vivo, rat. On the procedure: The animals were anesthetized following intraperitoneal injection of 45 mg kg^−1 pentobarbital. […] No anesthetic agent was administrated during the 30 minute interval prior to inducing cardiac arrest.
Pressures were measured with a high sensitivity pressure transducer (Model 42584-01; Abbott Critical Care System, North Chicago, Ill.). The optimally damped frequency response of the system was 22 Hz. […] Guided by pressure monitoring, the catheter was slowly withdrawn into the right atrium. Right atrial pressure was measured with reference to the mid-chest with another high sensitivity pressure transducer (Abbott model 42584-01). This catheter also served as an injection site for the thermal tracer. A 4 F polyethylene catheter (model C-PMS401J; Cook Critical Care, Bloomington, Ind.) was advanced through the right external jugular vein into the right atrium. A precurved guide wire supplied with the catheter was then advanced through the catheter into the right ventricle until an endocardial electrogram was observed. Another 23-gauge polyethylene catheter (PE 50) was advanced through the left femoral artery into the abdominal aorta for measurement of aortic pressure with the same Abbott high sensitivity transducer and also for sampling arterial blood. […] The thermocouple provided for measurements of blood temperature and thermodilution cardiac output. […] An additional PE 50 catheter was advanced into right femoral vein for drug infusion. EKG lead II was continuously recorded.
Experimental Procedure: A total of 15 animals were investigated. The investigators were blinded to the intervention until immediately prior to inducing VF, at which time the principal investigator opened a sealed envelope for assignment to one of three groups: (1) levosimendan (2) dobutamine or (3) saline placebo. This allowed time for preparation of a fresh dilution of the selected drug. […] Current flow was continued for 3 minutes to prevent spontaneous defibrillation as previously described (Von Planta I, Weil MH. Cardiopulmonary resuscitation in the rat. J Appl Physiol. 1988;65(6):2641-2647). Ventilation was discontinued after onset of VF. Precordial compression was begun with a pneumatically driven mechanical chest compressor after 8 minutes of untreated VF and continued for 6 minutes. These methods have been extensively exercised and have been well-documented (see Von Plata I (supra)) and Sun SJ, Weil MH, Tang W, et al. Combined effects of buffer and adrenergic agent on postresuscitation myocardial function. J Pharm Exp Ther. 1999;291 :773-777). Coincident with the start of precordial compression, the animals were mechanically ventilated. Tidal volume was established at 6.5 ml per kg animal weight, a frequency of 100 min^−1, and on a FiO2 of 1.0.

[3] abbreviates: 4-hour interval after treatment.

The values that follow come from US20060293395A1, “Methods for treating a mammal before, during and after cardiac arrest” (priority 2004, published 2006).

As to `C[C@@H]1CC(=O)NN=C1c1ccc(NN=C(C#N)C#N)cc1` [Levosimendan], in the test with Male Sprague-Dawley rats [1] (among the three groups, at PR10 and after administration of the drugs (FIG. 4)), the arterial pressures entry is listed as “No significant differences”. Besides, the cardiac index result with Male Sprague-Dawley rats [1] (post-resuscitation (FIG. 6)) is on record as “comparable increases in cardiac index”; with Male Sprague-Dawley rats [2] (post-resuscitation (FIG. 13)), “significant increases in cardiac index”. Also, the “contractility as reflected in the dP/dt40” value with Male Sprague-Dawley rats [1] (post-resuscitation (FIG. 9)) is given as “consistently greater increases in contractility”. Besides, the stroke volume entry in the test with Male Sprague-Dawley rats [1] (post-resuscitation, initially (FIG. 7)) is listed as “significantly greater stroke volumes”. In addition, the “left ventricular diastolic (filling) pressures” value in the test with Male Sprague-Dawley rats [1] (vs control and dobutamine-treated animals (FIG. 11)) was “substantially lower and near normal”; in the test with Male Sprague-Dawley rats [2] (post-resuscitation), “significantly lesser increases”. In addition, the post-resuscitation survival entry with Male Sprague-Dawley rats [1] (vs dobutamine and placebo (FIG. 12)) is given as “significantly longer post-resuscitation survival”. In the test with Male Sprague-Dawley rats [1] (vs placebo-treated controls (FIG. 8)), the “systemic vascular (arterial) resistance” value was “Comparable and significant reductions”. Moreover, the “mean pulmonary artery pressure” value in the test with male domestic pigs (setting [3]) is recorded as “Significantly lower”. Further, the “right atrial (filling) pressure” value in the test with male domestic pigs (setting [3]) is reported as “Significantly lower”. Besides, the heart rate result in the test on male domestic pigs (among the three groups) is on record as “did not differ”. The neurological alertness scores result in the test with male domestic pigs (at 24 hours) is “significantly better”. Also, the arterial pressure result with male domestic pigs (between levosimendan and dobutamine) is given as “no differences in arterial pressure”. The “coronary arterial-venous oxygen differences” value in the test with male domestic pigs (in comparison to dobutamine (FIG. 19)) is reported as “numerically smaller”. Further, in the test with male domestic pigs (in comparison to dobutamine, persisted at 72 hours (FIG. 17)), the EF entry was “significantly greater”. Besides, the FAC entry with male domestic pigs (in comparison to dobutamine, persisted at 72 hours (FIG. 18)) is “significantly greater”. In the test on male domestic pigs (vs saline placebo (FIG. 16)), the cardiac output entry is “Significantly greater cardiac output”. Moreover, the “mean arterial pressure (MAP)” value in the test with Male Sprague-Dawley rats [2] (between the three groups) is listed as “no significant differences”. Also, in the test with Male Sprague-Dawley rats [2] (observed over 72 hours, least with saline placebo (FIG. 15)), the duration of survival entry is on record as “maximal”. The dP/dt40 entry in the test with Male Sprague-Dawley rats [2] (vs saline placebo (FIG. 14)) was “Significantly greater”. The “−dP/dt” value in the test with Male Sprague-Dawley rats [2] (vs saline placebo (FIG. 14)) was “Significantly greater”.
